As usually defined, the EC50 is the concentration giving half of the maximal effect.

17 compounds from article PMC3597730, “Novel Phenolic Inhibitors of Small/Intermediate-Conductance Ca^2+-Activated K^+ Channels, KCa3.1 and KCa2.3” (PLoS ONE, 2013) can be followed below.

The structures appear in SMILES notation. “And” between values parts separate entries of the source, which are not always exact repeats. Identical values can stand only once. “Also recorded” adds a separate entry of the source. Like-named read-outs stand apart in the source and are kept apart here.

Assay [1] has as its target T1, KCa3.1 channels in 3T3 fibroblasts (Mus musculus, UniProt O89109).
T1 construct: KCa3.1 channels in 3T3 fibroblasts; endogenous in cells; host or cells: 3T3-L1 mouse embryonic fibroblasts
The assay can be described thus: Whole-cell patch-clamp of KCa3.1 currents in 3T3 fibroblasts. The assay is classed as cell-based. The conditions noted are these: for EC50 / KCa3.1 blocking effect (in words): whole-cell; for remaining activity at 10 µM: read-out: % of control at 10 µM; for remaining activity at 50 µM: compound 50 µM, read-out: % of control at 50 µM; for remaining activity at 1 µM: read-out: % of control at 1 µM; for KCa3.1 blocking effect (in words): concentrations up to 50 µM as in Table 1. (In general: The patch-clamp technique gives a direct electrical read-out from membranes.)

Assay [2] has as its system mixed KCa3.1 and KCa2.3 currents in PCAEC. The assay can be described thus: Whole-cell patch-clamp of KCa currents in porcine coronary artery endothelial cells. In kind it is cell-based. The conditions noted are these: whole-cell, compound 1 µM.
Assay [3] deals with T2, hKCa2.3 (Homo sapiens, UniProt Q9UGI6).
T2 construct: expressed in transfected cells; host or cells: COS7
The assay can be described thus: Whole-cell patch-clamp of hKCa2.3 in COS7 cells. In kind it is cell-based. As to conditions: for remaining activity at 1 µM: COS-7, hKCa2.3, compound 1 µM, mean ± SEM, n ≥ 3, read-out: % of control at 1 µM; for KCa2.3 blocking effect (in words): micromolar concentrations.

For assay [4], the target named is T3, cloned human KCa3.1 channel (Homo sapiens, UniProt O15554).
T3 construct: expressed in transfected cells; gift of Khaled Houamed, University of Chicago
The assay can be described thus: Inside-out patch recordings from hKCa3.1-overexpressing HEK293 cells. The assay is classed as biochemical. As to conditions: inside-out patches; compound 1 µM.

The target of assay [5] is T4, hKv1.2 (Homo sapiens, UniProt P16389).
T4 construct: expressed in transfected cells; host or cells: B82 murine fibroblasts (Methods)
The assay can be described thus: Whole-cell patch-clamp of cloned hKv1.2. In kind it is cell-based. The conditions noted are these: for remaining activity at 1 µM: hKv1.2, compound 1 µM, read-out: % of control at 1 µM.

Where [6] appears, read: EC50 of KCa3.1 inhibition, 3T3 fibroblasts.
[7] abbreviates: KCa3.1 whole-cell current, 3T3 fibroblasts, 1 µM free Ca2+ in pipette, compound 10 µM, mean ± SEM, n ≥3.
The mark [8] stands for this setting: KCa3.1 whole-cell current, 3T3 fibroblasts, 1 µM free Ca2+ in pipette, mean ± SEM, n ≥3.
[9] abbreviates: KCa3.1 whole-cell current, 3T3 fibroblasts, 1 µM free Ca2+ in pipette, compound 1 µM, mean ± SEM, n ≥3.
The mark [10] stands for this setting: 3T3 fibroblasts, read-out: EC50 of KCa3.1 inhibition.

T2 sequence (Q9UGI6 whole entry): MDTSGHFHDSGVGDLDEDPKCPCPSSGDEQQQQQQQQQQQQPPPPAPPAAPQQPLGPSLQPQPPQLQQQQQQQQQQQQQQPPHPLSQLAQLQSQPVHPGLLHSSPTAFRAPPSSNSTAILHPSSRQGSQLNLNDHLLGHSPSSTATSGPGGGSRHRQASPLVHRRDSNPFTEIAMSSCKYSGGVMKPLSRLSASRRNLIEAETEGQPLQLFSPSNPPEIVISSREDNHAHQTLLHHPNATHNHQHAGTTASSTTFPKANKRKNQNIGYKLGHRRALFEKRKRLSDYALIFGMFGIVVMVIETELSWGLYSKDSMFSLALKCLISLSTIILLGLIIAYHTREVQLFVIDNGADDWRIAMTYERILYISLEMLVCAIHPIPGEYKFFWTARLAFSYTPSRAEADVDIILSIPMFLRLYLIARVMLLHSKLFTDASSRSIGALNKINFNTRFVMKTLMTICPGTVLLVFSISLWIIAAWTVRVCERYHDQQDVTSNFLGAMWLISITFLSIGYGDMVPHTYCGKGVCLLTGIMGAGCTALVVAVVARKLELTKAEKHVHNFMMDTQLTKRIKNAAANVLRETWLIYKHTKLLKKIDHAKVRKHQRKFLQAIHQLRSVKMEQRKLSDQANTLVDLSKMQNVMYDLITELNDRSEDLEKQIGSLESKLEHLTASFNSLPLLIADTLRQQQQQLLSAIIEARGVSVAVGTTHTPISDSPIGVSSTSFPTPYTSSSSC
T4 sequence (P16389 whole entry): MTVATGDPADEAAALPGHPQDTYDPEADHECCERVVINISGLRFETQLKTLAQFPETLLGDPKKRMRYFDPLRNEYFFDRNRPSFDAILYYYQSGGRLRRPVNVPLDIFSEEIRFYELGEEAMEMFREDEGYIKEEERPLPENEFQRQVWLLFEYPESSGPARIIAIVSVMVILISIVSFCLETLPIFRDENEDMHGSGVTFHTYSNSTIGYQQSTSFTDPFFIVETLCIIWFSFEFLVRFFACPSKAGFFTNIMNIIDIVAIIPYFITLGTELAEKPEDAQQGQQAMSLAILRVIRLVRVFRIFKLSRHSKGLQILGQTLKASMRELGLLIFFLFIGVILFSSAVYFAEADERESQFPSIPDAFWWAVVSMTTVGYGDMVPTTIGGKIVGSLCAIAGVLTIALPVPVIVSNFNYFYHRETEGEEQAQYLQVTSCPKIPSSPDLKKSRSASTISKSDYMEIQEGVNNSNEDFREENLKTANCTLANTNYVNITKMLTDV

Regarding `COc1cc(/C=C/C(=O)O)ccc1O` [Ferulic Acid, (E)-3-(4-hydroxy-3-methoxyphenyl)propenoic acid], the EC50 in assay [1] (setting [6]) is greater than 10 µM. In addition, the remaining activity at 10 µM in assay [1] (setting [7]) worked out at 87 ± 8%. In assay [1] (setting [8]), the remaining activity at 50 µM amounted to 32 ± 4%.

Take `OCCc1ccc(O)c(O)c1` [Hydroxytyrosol]: the remaining activity at 1 µM in assay [1] (setting [9]) stood at 117 ± 9%. Besides, in assay [1] (setting [7]), the remaining activity at 10 µM was 108 ± 15%. The “KCa3.1 blocking effect (in words)” value in assay [1] (3T3 fibroblasts) was “weak or no blocking effects and no”.

`COc1cc(C(=O)O)ccc1O` [Vanillic Acid, 4-hydroxy-3-methoxybenzoic acid] gave a concentration giving a half-maximal response (EC50) in assay [1] (setting [6]) greater than 10 µM. In assay [1] (setting [7]), the remaining activity at 10 µM amounted to 78 ± 11%. Besides, the remaining activity at 50 µM in assay [1] (setting [8]) was 46 ± 12%. In addition, the “KCa3.1 blocking effect (in words)” value in assay [1] (3T3 fibroblasts) is on record as “weak or no blocking effects; also recorded: Weak inhibition”.

Regarding `CC(=O)Oc1ccccc1C(=O)O` [2-acetyloxybenzoic acid, reference compound], in assay [1] (setting [7]), the remaining activity at 10 µM came to 108 ± 5%. For the same compound, the remaining activity at 50 µM in assay [1] (setting [8]) came to 104 ± 7%. In addition, the “KCa3.1 blocking effect (in words)” value in assay [1] (3T3 fibroblasts) is given as “no effect”.

On to `O=C(O)c1cccnc1Nc1cccc(C(F)(F)F)c1` [Niflumic Acid, reference compound], for which, in assay [1] (setting [7]), the remaining activity at 10 µM amounted to 106 ± 7%. Further, the remaining activity at 50 µM in assay [1] (setting [8]) came to 81 ± 4%. Further, the “KCa3.1 blocking effect (in words)” value in assay [1] (3T3 fibroblasts) was “no blocking activity; also recorded: no blocking effects”.

`Cc1cccc(Nc2ccccc2C(=O)O)c1C` [Mefenamic Acid, 2-((2,3-dimethylphenyl)amino)benzoic acid, reference compound]: in assay [1] (setting [9]), the remaining activity at 1 µM is 117 ± 4%. Also, the remaining activity at 10 µM in assay [1] (setting [7]) was 136 ± 28%. Further, in assay [1] (3T3 fibroblasts), the “KCa3.1 blocking effect (in words)” value is recorded as “no blocking effects”.

Take `Cc1ccc(=O)n(-c2ccccc2)c1` [Pirfenidone, methyl-1-phenylpyridin-2(1H)-one, reference compound]: the remaining activity at 10 µM in assay [1] (setting [7]) came to 98 ± 5%. The remaining activity at 50 µM in assay [1] (setting [8]) turned out to be 99 ± 14%. In addition, the “KCa3.1 blocking effect (in words)” value in assay [1] (3T3 fibroblasts) is recorded as “no effects”.

For the compound `Nc1ccc(O)c(C(=O)O)c1` [Mesalamine, 5-amino-2-hydroxybenzoic acid, reference compound], the remaining activity at 1 µM in assay [1] (setting [9]) came to 72 ± 6%. Besides, the remaining activity at 10 µM in assay [1] (setting [7]) worked out at 53 ± 7%. Further, in assay [1] (setting [8]), the remaining activity at 50 µM was determined as 46 ± 3%. In assay [1] (setting [10]), the 50% effective concentration (EC50) was ≥ 10 µM and 26 µM.

On to `NC(=O)C[S+]([O-])C(c1ccccc1)c1ccccc1` (stereo not shown) [Modafinil, 2-benzhydrylsulfinylacetamide, reference compound], for which the EC50 in assay [1] (setting [6]) was greater than 1 µM. Further, the remaining activity at 10 µM in assay [1] was 33 ± 6%.

In the case of `O=C(O)c1cc(O)c(O)c(O)c1` [Gallic acid, 3,4,5-trihydroxybenzoic acid], the remaining activity at 10 µM in assay [1] (setting [7]) was found to be 101 ± 6%. For the same compound, in assay [1] (3T3 fibroblasts), the “KCa3.1 blocking effect (in words)” value was “weak or no blocking effects and no”.

On to `Oc1ccc(/C=C/c2cc(O)cc(O)c2)cc1` [Resveratrol, 5-[(E)-2-(4-Hydroxyphenyl)vinyl]benzene-1,3-diol], for which the EC50 in assay [1] (setting [10]) was 10 µM and ~10 µM and 1 to 10 µM.

As for `O=C(/C=C/c1ccc(O)c(O)c1)OCCc1ccccc1` [Caffeic acid phenethyl ester, 2-phenylethyl (E)-3-(3,4-dihydroxyphenyl)propenoate], the remaining activity at 10 µM in assay [1] (setting [7]) was 94 ± 6%. Further, the “KCa3.1 blocking effect (in words)” value in assay [1] (3T3 fibroblasts) is given as “no”.

For `Clc1ccccc1C(c1ccccc1)(c1ccccc1)n1cccn1` [TRAM-34, 1-[(2-chlorophenyl) (diphenyl)methyl]-1H-pyrazole, reference compound], the “KCa current, % of control” value in assay [2] came to 58±4%. In addition, in assay [1], the remaining activity at 1 µM was 1 ± 1%. The “KCa3.1 blocking effect (in words)” value in assay [1] (3T3 fibroblasts) is on record as “completely inhibited”.

Consider `c1cc2cc(c1)C[n+]1ccc(c3ccccc31)NCc1ccc(cc1)CNc1cc[n+](c3ccccc13)C2` [UCL1684, 6,10-diaza-3(1,3),8(1,4)-dibenzena-1,5(1,4)-diquinolinacyclodecaphane, reference compound], for which, in assay [3] (hKCa2.3 current pre-activated by 1 µM SKA-31, n = 4), the “% of control at 100 nM” value stood at 2±1%.

Consider `O=C(OCc1cc(COC(=O)c2ccc(O)c(Cl)c2)cc(COC(=O)c2ccc(O)c(Cl)c2)c1)c1ccc(O)c(Cl)c1` [Compound 13c, [3,5-bis[(3-chloro-4-hydroxy-benzoyl)oxymethyl]phenyl]methyl3-chloro-4-hydroxy-benzoate], for which the remaining activity at 1 µM turned out to be 92 ± 4% in assay [3], 61 ± 17% in assay [1] (setting [9]) and 104 ± 3% in assay [5]. Moreover, in assay [3], the “KCa2.3 blocking effect (in words)” value is recorded as “no blocking effects”. For the same compound, in assay [1] (3T3 fibroblasts), the “KCa3.1 blocking effect (in words)” value is “weak to moderate blocking efficiency”. Moreover, the “hKCa3.1 blocking effect (in words)” value in assay [4] is on record as “no or minor blocking effects; also recorded: did not block”. In assay [5] (flufenamic acid and caffeic acid 10 and 50 µM, 13c 1 µM), the “hKv1.2 blocking effect (in words)” value is recorded as “no effect”.

Take `COc1cc(C(=O)OCc2cc(COC(=O)c3ccc(O)c(OC)c3)cc(COC(=O)c3ccc(O)c(OC)c3)c2)ccc1O` [Compound 13a, [3,5-bis[(4-hydroxy-3-methoxy-benzoyl)oxymethyl]phenyl]methyl4-hydroxy-3-methoxy-benzoate]: the values for the remaining activity at 1 µM in assay [3], in assay [1] (setting [9]) and in assay [5] were 98 ± 1%, 78 ± 6% and 46 ± 3%, respectively. In addition, the “KCa2.3 blocking effect (in words)” value in assay [3] is “no blocking effects”. Further, in assay [4], the “hKCa3.1 blocking effect (in words)” value is reported as “no or minor blocking effects; also recorded: did not block”. For the same compound, the “block of hKv1.2 currents” value in assay [5] (1 µM) was 50%.

On to `O=C(OC[C@H]1O[C@@H](OC(=O)c2cc(O)c(O)c(O)c2)[C@H](OC(=O)c2cc(O)c(O)c(O)c2)[C@@H](OC(=O)c2cc(O)c(O)c(O)c2)[C@@H]1OC(=O)c1cc(O)c(O)c(O)c1)c1cc(O)c(O)c(O)c1` [1,2,3,4,6-pentagalloyl glucose, [(2S,3R,4S,5R,6R)-2,3,5-tris[(3,4,5-trihydroxybenzoyl)oxy]-6-[(3,4,5-trihydroxybenzoyl)oxymethyl]oxan-4-yl] 3,4,5-trihydroxybenzoate], for which the remaining activity at 10 µM in assay [1] (setting [7]) came to 102 ± 6%. In addition, the “KCa3.1 blocking effect (in words)” value in assay [1] (3T3 fibroblasts) is listed as “no”.
